Target: T1, rat hepatic microsomal HMG CoA reductase (Rattus norvegicus, UniProt P51639)
T1 construct: rat hepatic microsomal HMG CoA reductase; from tissue; host or cells: rat liver microsomes
T1 sequence (P51639 1-887): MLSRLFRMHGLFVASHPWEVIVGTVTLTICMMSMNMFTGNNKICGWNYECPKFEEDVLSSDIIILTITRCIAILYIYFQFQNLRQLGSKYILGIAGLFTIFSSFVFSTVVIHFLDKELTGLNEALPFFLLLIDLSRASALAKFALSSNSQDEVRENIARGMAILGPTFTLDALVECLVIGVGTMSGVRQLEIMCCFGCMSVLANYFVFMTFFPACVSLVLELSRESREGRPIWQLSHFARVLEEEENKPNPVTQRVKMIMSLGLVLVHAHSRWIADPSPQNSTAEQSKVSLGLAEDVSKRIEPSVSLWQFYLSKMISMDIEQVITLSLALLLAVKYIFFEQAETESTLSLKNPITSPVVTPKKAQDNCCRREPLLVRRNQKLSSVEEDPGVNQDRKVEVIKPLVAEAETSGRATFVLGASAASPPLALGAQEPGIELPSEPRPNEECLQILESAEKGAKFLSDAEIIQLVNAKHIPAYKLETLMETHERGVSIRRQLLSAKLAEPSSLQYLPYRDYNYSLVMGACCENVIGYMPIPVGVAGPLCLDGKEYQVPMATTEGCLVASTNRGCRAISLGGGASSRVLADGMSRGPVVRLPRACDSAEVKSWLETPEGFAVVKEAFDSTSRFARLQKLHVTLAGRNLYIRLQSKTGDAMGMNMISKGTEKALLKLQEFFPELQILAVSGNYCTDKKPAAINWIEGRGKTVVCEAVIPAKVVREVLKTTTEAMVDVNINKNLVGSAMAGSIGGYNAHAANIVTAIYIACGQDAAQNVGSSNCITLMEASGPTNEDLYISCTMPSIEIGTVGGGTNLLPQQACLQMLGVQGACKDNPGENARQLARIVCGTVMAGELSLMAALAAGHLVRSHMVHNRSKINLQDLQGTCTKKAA
Experiment: inhibition of rat hepatic microsomal HMG CoA reductase activity in vitro (Table I)
Type: biochemical
Details: for inhibition at 0.082 µg/mL: 0.082 micrograms/ml; for inhibition at 0.25 µg/mL: 0.25 micrograms/ml; for inhibition at 0.74 µg/mL: 0.74 micrograms/ml; for inhibition at 2.22 µg/mL: 2.22 micrograms/ml; for inhibition at 6.66 µg/mL: 6.66 micrograms/ml; for inhibition at 20 µg/mL: 20.0 micrograms/ml
From the text: In the table the concentrations of the test compounds are expressed in micrograms/ml.

Row | Structure (SMILES) | inhibition at 0.082 µg/mL [%] | inhibition at 0.25 µg/mL [%] | inhibition at 0.74 µg/mL [%] | inhibition at 2.22 µg/mL [%] | inhibition at 6.66 µg/mL [%] | inhibition at 20 µg/mL [%]
1 | Cc1cc(-n2c(/C=C/[C@@H]3C[C@@H](O)CC(=O)O3)c(C(C)C)c3ccccc3c2=O)ccc1F [P, (4R,6S)-(E)-6-(2-(2-(4-fluoro-3-methylphenyl)-4-isopropyl-1-oxo-1,2-dihydroisoquinolin-3-yl)ethen-1-yl)-4-hydroxy-3,4,5,6-tetrahydro-2H-pyran-2-one] | 27 | 39 | 63 | 81 | 90 | 90
2 | CC(C)c1c(/C=C/[C@@H]2C[C@@H](O)CC(=O)O2)n(CC2CCCCC2)c(=O)c2ccccc12 [AB, (4R,6S)-(E)-6-(2-(2-cyclohexylmethyl-4-isopropyl-1-oxo-1,2-dihydroisoquinolin-3-yl)ethen-1-yl)-4-hydroxy-3,4,5,6-tetrahydro-2H-pyran-2-one] |  |  | 20 | 41 | 66 | 
3 | CC(C)n1c(/C=C/[C@@H]2C[C@@H](O)CC(=O)O2)c(-c2ccc(F)cc2)c2ccccc2c1=O [H, (4R,6S)-(E)-4-hydroxy-6-[2-{4-(4-fluorophenyl)-2-isopropyl-1-oxo-1,2-dihydroisoquinolin-3-yl}-ethen-1-yl]-3,4,5,6-tetrahydro-2H-pyran-2-one] | 49 | 66 | 85 | 95 | 99 | 100

Reference: US5004747A, “Isoquinolinones” (May & Baker Limited, priority 1988, dated 1991)
